System: Clostridium ljungdahlii
Experiment: Formation of acetic acid and ethanol from synthesis gas in CGF1 mineral medium with refeeding of cysteine (Example 3)
Format: cell-based
Procedure: For the biotransformation of hydrogen and carbon dioxide to acetic acid and ethanol the homoacetogenic bacterium Clostridium ljungdahlii was cultivated on synthesis gas with refeeding of cysteine. All cultivation steps were carried out under anaerobic conditions in pressure-resistant glass bottles that can be closed airtight with a butyl rubber stopper.
The chemolithoautotrophic cultivation was carried out in a 1 L pressure-resistant glass bottle at 37° C., 100 rpm and a ventilation rate of 3 L/h with a premixed gas with 67% H2, 33% CO2 in an open water bath shaker for 69 h till OD600nm>0.4. The gas was discharged into the medium through a sparger with a pore size of 10 μm, which was mounted in the center of the reactors. Then the cell suspension was centrifuged and the cell pellet was resuspended in fresh CGF1 mineral medium as disclosed below.
For the production phase, as many washed cells from the preculture of C. ljungdahlii as necessary for an OD600nm of 0.2 were added to 100 ml mineral medium (CGF1 medium, pH 6.5, 1.4 g/L KOH, 2 g/L (NH4)2SO4, 1 g/L KH2PO4, 1 g/L K2HPO4, 10 mg/L FeSO4 X 7 H2O, 3.8 mg/L MnSO4 X 1 H2O, 246 mg/L MgSO4×7 H2O, aerated for 30 min with a premixed gas with 67% H2 and 33% CO2). […] The cultivation was carried out in 500 mL pressure-resistant glass bottles at 37° C., 150 rpm in an open water bath shaker for 163 h which were aerated to an overpressure of 0.8 bar with a premixed gas with 67% H2, 33% CO2 one time a day. The pH was held >5.0 by intermittent additions of a 140 g/L KOH solution. During the cultivation several 5 mL samples were taken to determinate OD600nm, pH and product formation. […] The determination of the product concentrations including the L-Cysteine concentration was performed by semiquantitative ^1H-NMR spectroscopy. As an internal quantification standard sodium trimethylsilylpropionate (T(M)SP) was used.

[1] = culture A, 400 mg/L L-cysteine-hydrochloride at start, no refeed, 0 h
[2] = culture A, 400 mg/L L-cysteine-hydrochloride at start, no refeed, 18.75 h
[3] = culture A, 400 mg/L L-cysteine-hydrochloride at start, no refeed, 41.5 h
[4] = culture A, 400 mg/L L-cysteine-hydrochloride at start, no refeed, 46.75 h
[5] = culture A, 400 mg/L L-cysteine-hydrochloride at start, no refeed, 65.5 h
[6] = culture A, 400 mg/L L-cysteine-hydrochloride at start, no refeed, 69.5 h
[7] = culture A, 400 mg/L L-cysteine-hydrochloride at start, no refeed, 89.75 h
[8] = culture A, 400 mg/L L-cysteine-hydrochloride at start, no refeed, 163.5 h
[9] = culture B, 200 mg/L L-cysteine-hydrochloride at start, no refeed, 0 h
[10] = culture B, 200 mg/L L-cysteine-hydrochloride at start, no refeed, 18.75 h
[11] = culture B, 200 mg/L L-cysteine-hydrochloride at start, no refeed, 41.5 h
[12] = culture B, 200 mg/L L-cysteine-hydrochloride at start, no refeed, 46.75 h
[13] = culture B, 200 mg/L L-cysteine-hydrochloride at start, no refeed, 65.5 h
[14] = culture B, 200 mg/L L-cysteine-hydrochloride at start, no refeed, 69.5 h
[15] = culture B, 200 mg/L L-cysteine-hydrochloride at start, no refeed, 89.75 h
[16] = culture B, 200 mg/L L-cysteine-hydrochloride at start, no refeed, 163.5 h
[17] = culture C, 200 mg/L L-cysteine-hydrochloride at start, re-fed 200 mg/L after 18, 41, 65, 89 h, 0 h
[18] = culture C, 200 mg/L L-cysteine-hydrochloride at start, re-fed 200 mg/L after 18, 41, 65, 89 h, 18.75 h
[19] = culture C, 200 mg/L L-cysteine-hydrochloride at start, re-fed 200 mg/L after 18, 41, 65, 89 h, 41.5 h
[20] = culture C, 200 mg/L L-cysteine-hydrochloride at start, re-fed 200 mg/L after 18, 41, 65, 89 h, 46.75 h
[21] = culture C, 200 mg/L L-cysteine-hydrochloride at start, re-fed 200 mg/L after 18, 41, 65, 89 h, 65.5 h
[22] = culture C, 200 mg/L L-cysteine-hydrochloride at start, re-fed 200 mg/L after 18, 41, 65, 89 h, 69.5 h
[23] = culture C, 200 mg/L L-cysteine-hydrochloride at start, re-fed 200 mg/L after 18, 41, 65, 89 h, 89.75 h
[24] = culture C, 200 mg/L L-cysteine-hydrochloride at start, re-fed 200 mg/L after 18, 41, 65, 89 h, 95.5 h
[25] = culture C, 200 mg/L L-cysteine-hydrochloride at start, re-fed 200 mg/L after 18, 41, 65, 89 h, 163.5 h

Cl.N[C@@H](CS)C(=O)O [L-Cysteine-HCl, L-cysteine hydrochloride]
Acetate [1]: 34.0 mg/L | Ethanol [1]: 2.0 mg/L | OD (600 nm) [1]: 0.206 | Acetate [2]: 1400.0 mg/L | Ethanol [2]: 60.0 mg/L | OD (600 nm) [2]: 0.232 | Acetate [3]: 2550 mg/L | Ethanol [3]: 420 mg/L | OD (600 nm) [3]: 0.293 | Acetate [4]: 2700 mg/L | Ethanol [4]: 480 mg/L | OD (600 nm) [4]: 0.281 | Acetate [5]: 3500 mg/L | Ethanol [5]: 580 mg/L | OD (600 nm) [5]: 0.324 | Acetate [6]: 3700 mg/L | Ethanol [6]: 650 mg/L | OD (600 nm) [6]: 0.366 | Ethanol [7]: 580.0 mg/L | OD (600 nm) [7]: 0.324 | Acetate [8]: 6100.0 mg/L | Ethanol [8]: 670.0 mg/L | OD (600 nm) [8]: 0.339 | Acetate [9]: 35.0 mg/L | Ethanol [9]: 1.9 mg/L | OD (600 nm) [9]: 0.197 | Acetate [10]: 1400.0 mg/L | Ethanol [10]: 100.0 mg/L | OD (600 nm) [10]: 0.261 | Acetate [11]: 2150 mg/L | Ethanol [11]: 580 mg/L | OD (600 nm) [11]: 0.279 | Acetate [12]: 2200 mg/L | Ethanol [12]: 630 mg/L | OD (600 nm) [12]: 0.269 | Acetate [13]: 2200 mg/L | Ethanol [13]: 600 mg/L | OD (600 nm) [13]: 0.271 | Acetate [14]: 2200 mg/L | Ethanol [14]: 590 mg/L | OD (600 nm) [14]: 0.259 | Acetate [15]: 2350.0 mg/L | Ethanol [15]: 560.0 mg/L | OD (600 nm) [15]: 0.241 | Acetate [16]: 2550.0 mg/L | Ethanol [16]: 570.0 mg/L | OD (600 nm) [16]: 0.237 | cell growth (culture C (re-fed) compared with cultures A and B): stronger cell growth | concentrations of acetate and ethanol (culture C (re-fed) compared with cultures A and B, production phase): increased more | Acetate [17]: 27.0 mg/L | Ethanol [17]: 2.0 mg/L | OD (600 nm) [17]: 0.209 | Acetate [18]: 1400.0 mg/L | Ethanol [18]: 85.0 mg/L | OD (600 nm) [18]: 0.245 | Acetate [19]: 3000 mg/L | Ethanol [19]: 510 mg/L | OD (600 nm) [19]: 0.339 | Acetate [20]: 3250 mg/L | Ethanol [20]: 580 mg/L | OD (600 nm) [20]: 0.335 | Ethanol [21]: 790 mg/L | OD (600 nm) [21]: 0.399 | Ethanol [22]: 860 mg/L | OD (600 nm) [22]: 0.392 | Acetate [23]: 5000.0 mg/L | Ethanol [23]: 810.0 mg/L | OD (600 nm) [23]: 0.431 | Acetate [24]: 5600.0 mg/L | Ethanol [24]: 880.0 mg/L | OD (600 nm) [24]: 0.434 | Acetate [25]: 7700.0 mg/L | Ethanol [25]: 960.0 mg/L | OD (600 nm) [25]: 0.481

— patent publication US20160177259A1, “[…]” (Evonik Degussa GmbH, priority 2014, published 2016)
